Reference: patent US8431402B2, “Method of high frequency regeneration of Sorghum” (Temasek Life Sciences Laboratory Limited, priority 2008, dated 2013)

Tested on: dissected embryonated cotyledon (DEC) explants of sweet sorghum hybrid varieties Liotian 1, Lioza 7050A and Liao Ji Za 1
Assay: Regeneration of sorghum via organogenesis from dissected embryonated cotyledon (DEC) explants on stage 1-6 media
Assay type: cell-based, Sorghum bicolor (L.) Moench
Conditions: for phenolic exudates from the base of the shoot buds: added to stage 2 medium
Protocol: Seeds of sweet sorghum (Sorghum bicolor (L.) Moench) hybrid varieties Liotian 1, Lioza 7050A and Liao Ji Za 1 were obtained from Chinese National Center for Sorghum Improvement, Shenyang City, 110161, Liaoning Province, P.R. China. The viable seeds were washed in chlorohexidine surgical wash (two drops in 100 ml of sterile water) for five minutes and soaked in sterile water for two days at 4° C. in refrigerator. Later these imbibed seeds were further surface sterilized in 10% clorox solution (commercial bleach) for 10 minutes followed by washes with sterile water for five times. To ensure complete sterility, these seeds were rinsed again with 70% alcohol for 90 seconds and subsequently washed with sterile water three times before used as explants.
The radical tissues were completely removed from the dissected embryonated cotyledon (DEC) explants. After six weeks of culture, the SCPC from stage 1 medium were further injured and transferred to stage 2 medium (Table 1) and stage 3 medium (Table 1) at five and ten-day interval for shoot bud induction. Subsequently, the shoot buds developed on stage 3 medium were split into 8-10 clumps with each clumps containing three to five shoots and transferred to stage 4 medium (Table 1) for further shoot induction followed by stage 5 medium (Table 1) for shoot elongation at two-week intervals respectively. The elongated shoot clumps with 2-3 shoots (4 cm height) from stage 5 medium were transferred to stage 6 medium (Table 1) for root induction. The well developed and rooted plantlets were transferred for hardening after two weeks of culture.
The pH of the medium was adjusted to 5.8 with 1N NaOH or 1N HCl prior to the addition of 0.8% phytoagar (stages 1-5 media) or 0.25% phytogel (stage 6 medium) and sterilized by autoclaving at 121° C. for 20 minutes. Approximately 20 ml of sterilized medium was dispensed into sterilized Petri dish (90×15 mm size, plastic polycarbonate, Canada). The chemicals used for media preparations were of analytical grade (Duchefa Biochemie, Haarlem, The Netherlands and Sigma Aldrich, Inc., St Louis, USA). All the cultures were maintained at 25° C. 2° C. under white fluorescent tube lights, 16/8 h (light/dark) photoperiod period, light intensity of 25 μE m^−2s^−1 and with 55-60% relative humidity. The cultures were subcultured at two-week intervals during stage 1, five-day intervals in stages 2 and 3, followed by one-week intervals in stages 4 and 5, with no subculturing in stage 6.

Structure (SMILES) | germination of embryos attached to the cotyledons (present in stage 1 medium) | phenolic exudates from the base of the shoot buds | other results
NC(=O)CC[C@H](N)C(=O)O [L-glutamine] | inhibited germination of embryos | – | –
O=C(O)COc1ccc(Cl)cc1Cl [2,4-D, 2,4-dichlorophenoxy acetic acid] | – | – | callus formation (present in stage 1 medium, 6.78 μM): induced callus formation
O=C(O)Cc1c[nH]c2ccccc12 [IAA, indole 3-acetic acid] | – | – | root induction (in stage 6 medium, 5.7 μM): induced roots within one week
O=[N+]([O-])[O-].[Ag+] [AgNO3] | – | prevented these phenolic exudates | –
O=C1O[C@H]([C@@H](O)CO)C(O)=C1O [Asc, ascorbic acid] | – | prevented these phenolic exudates | –
CC1=CC(=O)CC(C)(C)[C@@]1(O)/C=C/C(C)=C\C(=O)O [ABA, abscisic acid] | inhibited germination of embryos | – | –
NCC(=O)O [L-glycine] | – | prevented these phenolic exudates | –
O=C(O)[C@@H]1CCCN1 [proline, L-proline] | inhibited germination of embryos | – | –
